Assays:
[1] = molecular target: GST-tagged KRAS-G12D (2-169) (Homo sapiens, UniProt P01116, G12D); test: Nucleotide exchange assay (NEA), SOS-mediated, HTRF, KRAS G12D; assay type: biochemical; settings: Table 4; IC50 extracted at 30 min; 20 nM SOScat; read-out: NEA G12D IC50
Summary of the method: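 Compound preincubated 1 h at RT with 0.25 nM GST-KRAS-G12D (2-169) and anti-GST Tb donor, then 20 nM SOS1cat (564-1049) and 150 nM GTP-DY-647P1 added; pH 7.3 HEPES buffer with MgCl2 and DTT. HTRF monitored at RT; % inhibition versus DMSO and no-SOS blank, 4-parameter IC50 taken at 30 min.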

[2] = molecular target: GST-tagged KRAS-G12V (2-169) (Homo sapiens, UniProt P01116, G12V); test: Nucleotide exchange assay (NEA), SOS-mediated, HTRF, KRAS G12V; assay type: biochemical; settings: Table 4; IC50 extracted at 90 min; 80 nM SOS
Summary of the method: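 GST-KRAS-G12V (2-169), 0.25 nM, pre-incubated 1 h at RT with compound, then SOS1cat (564-1049) 80 nM and GTP-DY-647P1 150 nM added in HEPES pH 7.3 buffer with MgCl2 and DTT. HTRF via anti-GST Tb cryptate read over 90 min; IC50 from 4-parameter fit at 90 min, blanked to no-SOS reactions.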

[3] = test system: phospho-ERK in SW620 (KRAS-G12V) cells; test: pERK In Cell Western (ICW) assay (Method B), SW620; assay type: cell-based; settings: Homo sapiens, SW-620, 3 h, Table 4
Experimental: pERK ICW is a high throughput screening assay to evaluate the cellular potency of mutant KRAS small molecule inhibitors. KRAS mutant cell lines AGS, GP2D (KRAS-G12D) as well as SW620 (KRAS-G12V) were purchased from ATCC and maintained respectively in RPMI/DMEM/RPMI medium supplemented with 10% fetal bovine serum.
Cells grown in exponential phase were trypsinized, resuspended in fresh media, and viable cells were counted using a cell counter with Trypan Blue (BioRad TC20). Cells were seeded into 384-well plate (Greiner 781091) at density of 5,000 cells/well for AGS and 10,000 cells/well for GP2D/SW620 and allowed to grow overnight in a 37° C. CO2 incubator. The next day, compounds were dispensed into wells with a ½ log, 9-point serial dilution using a Tecan D300e dispenser and incubated for 3 hours in a 37° C. CO2 incubator. Cells were then fixed with paraformaldehyde (Electron Microscopy Sciences, 15710, 4% final concentration) for 30 min, permeabilized with wash buffer (1×PBS+0.1% Triton X-100) for 30 min and blocked with Odyssey blocking buffer (Li—COR 927-70001) for 1 hour, all at room temperature (RT). Phospho-ERK antibody (CST 4370L) was diluted 1:500 in Odyssey T20 (PBS) antibody diluent (Li—COR 927-75001) and incubated with cells overnight at 4° C. The next day, plates were washed 5× with wash buffer, incubated with IRDye 800 CW, Goat anti-Rabbit secondary antibody (Li—COR 926-32211, 1:800) and DRAQ5 (CST 4084L, 1:5,000) diluted in Odyssey T20 (PBS) antibody diluent for 1 hour, washed 5×, and imaged on an Odyssey CLx imaging system.
For data analysis, signal intensities from 800 (phosphor-ERK) and 700 (DRAQ5) channels were extracted, and phospho-ERK signals were normalized to DRAQ5 signals for each well and percent of blank control values were computed. Data were then imported into Graphpad Prism to compute half-maximal inhibitory concentrations (IC50) using a 4-parameter variable slope model. Z-factor for each plate was computed from signals derived from wells treated with either DMSO or 5 μM of control compound. AGS pERK ICW (Method B) IC50 (uM) values of selected compounds are depicted in Table 2 with compounds having a value ≥0.001 uM to 0.01 uM as ++++; ≥0.01 uM to 0.1 uM as +++; ≥0.1 uM to 1 uM as ++; ≥1 uM to 10 uM as + and ≥10 uM as NA.

Sequence of GST-tagged KRAS-G12D (2-169) (P01116 2-169 isoform P01116-2 G12D): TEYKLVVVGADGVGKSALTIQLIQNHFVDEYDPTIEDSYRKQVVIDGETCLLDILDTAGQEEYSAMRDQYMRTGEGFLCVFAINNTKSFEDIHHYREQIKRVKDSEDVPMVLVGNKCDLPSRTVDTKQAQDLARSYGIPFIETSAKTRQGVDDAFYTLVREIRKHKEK
Sequence of GST-tagged KRAS-G12V (2-169) (P01116 2-169 isoform P01116-2 G12V): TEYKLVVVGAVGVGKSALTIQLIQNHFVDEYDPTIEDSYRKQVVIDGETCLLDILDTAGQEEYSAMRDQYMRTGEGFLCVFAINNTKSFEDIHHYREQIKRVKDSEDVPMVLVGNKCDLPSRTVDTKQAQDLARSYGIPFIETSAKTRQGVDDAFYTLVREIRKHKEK

Row | Structure (SMILES) | IC50 [1] [nM] | IC50 [2] [nM] | IC50 [3] [nM]
1 | CCN(c1nc(OC[C@@]23CCCN2C[C@H](F)C3)nc(N2CC3(C2)SCc2sc(N)c(C#N)c23)n1)C1(C#N)CC1 [Compound 238, 2-amino-1′-[4-[(1-cyanocyclopropyl)-ethyl-amino]-6-[[(2R,8S)-2-fluoro-1,2,3,5,6,7-hexahydropyrrolizin-8-yl]methoxy]-1,3,5-triazin-2-yl]spiro[6H-thieno[3,4-b]thiophene-4,3′-azetidine]-3-carbonitrile] | < 10 | < 10 | 10 to 100
2 | C[C@H](c1cccnc1N)N(C)c1nc(OC[C@@]23CCCN2C[C@H](F)C3)nc(N2CCC(c3c(Cl)sc(N)c3C#N)C2)n1 (stereo partly drawn) [Compound 191, 2-amino-4-[1-[4-[[(1R)-1-(2-amino-3-pyridyl)ethyl]-methyl-amino]-6-[[(2R,8S)-2-fluoro-1,2,3,5,6,7-hexahydropyrrolizin-8-yl]methoxy]-1,3,5-triazin-2-yl]pyrrolidin-3-yl]-5-chloro-thiophene-3-carbonitrile] | 10 to 100 | < 10 | 10 to 100
3 | CCN(c1nc(OC[C@@]23CCCN2C[C@H](F)C3)nc(N2CC3(C2)SCc2sc(N)c(C#N)c23)n1)C(C)CC#N (stereo partly drawn) [Compound 254, 2-amino-1′-[4-[(2-cyano-1-methyl-ethyl)-ethyl-amino]-6-[[(2R,8S)-2-fluoro-1,2,3,5,6,7-hexahydropyrrolizin-8-yl]methoxy]-1,3,5-triazin-2-yl]spiro[6H-thieno[3,4-b]thiophene-4,3′-azetidine]-3-carbonitrile; formic acid] | < 10 | < 10 | 100 to 1000
4 | N#Cc1c(N)sc2c1C1(CN(c3nc(OC[C@@]45CCCN4C[C@H](F)C5)nc(N4[C@H]5CC[C@]4(CO)COC5)n3)C1)SC2 [Compound 200, 2′-amino-1-(4-(((2R,7aS)-2-fluorotetrahydro-1H-pyrrolizin-7a(5H)-yl)methoxy)-6-((1S,5S)-1-(hydroxymethyl)-3-oxa-8-azabicyclo[3.2.1]octan-8-yl)-1,3,5-triazin-2-yl)-6′H-spiro[azetidine-3,4′-thieno[3,4-b]thiophene]-3′-carbonitrile] | 10 to 100 | < 10 | 100 to 1000
5 | CCN(CC#N)c1nc(OC[C@@]23CCCN2C[C@H](F)C3)nc(N2CC3(C2)SCc2sc(N)c(C#N)c23)n1 [Compound 237, 2-amino-1′-[4-[cyanomethyl(ethyl)amino]-6-[[(2R,8S)-2-fluoro-1,2,3,5,6,7-hexahydropyrrolizin-8-yl]methoxy]-1,3,5-triazin-2-yl]spiro[6H-thieno[3,4-b]thiophene-4,3′-azetidine]-3-carbonitrile] | < 10 | < 10 | 10 to 100
6 | N#Cc1c(N)sc2c1C1(CN(c3nc(OC[C@@]45CCCN4C[C@H](F)C5)nc(N(CCO)C4(C#N)CC4)n3)C1)SC2 (racemic) [Compound 240, 2-amino-1′-[4-[(1-cyanocyclopropyl)-(2-hydroxyethyl)amino]-6-[[rac-(2R,8S)-2-fluoro-1,2,3,5,6,7-hexahydropyrrolizin-8-yl]methoxy]-1,3,5-triazin-2-yl]spiro[6H-thieno[3,4-b]thiophene-4,3′-azetidine]-3-carbonitrile] | < 10 | < 10 | 10 to 100
7 | CC1(O)CCCN(c2nc(OCC34CCCN3C(COc3cc(C(F)(F)F)ncn3)CC4)nc(N3CC4(C3)SCc3sc(N)c(C#N)c34)n2)C1 (single isomer, unassigned) [Compound 256A] | < 10 | < 10 | 100 to 1000
8 | CC(c1c[nH]nn1)N(CC#N)c1nc(OC[C@@]23CCCN2C[C@H](F)C3)nc(N2CC3(C2)SCc2sc(N)c(C#N)c23)n1 (stereo partly drawn) [Compound 250, 2-amino-1′-[4-[cyanomethyl-[1-(1H-triazol-4-yl)ethyl]amino]-6-[[(2R,8S)-2-fluoro-1,2,3,5,6,7-hexahydropyrrolizin-8-yl]methoxy]-1,3,5-triazin-2-yl]spiro[6H-thieno[3,4-b]thiophene-4,3′-azetidine]-3-carbonitrile] | < 10 | < 10 | 100 to 1000
9 | N#Cc1c(N)sc2c1C1(CN(c3nc(OC[C@@]45CCCN4C[C@H](F)C5)nc(N4CC(O)NC(=O)C45CC5)n3)C1)SC2 (stereo partly drawn) [Compound 255, 2-amino-1′-[4-[[(2R,8S)-2-fluoro-1,2,3,5,6,7-hexahydropyrrolizin-8-yl]methoxy]-6-(6-hydroxy-8-oxo-4,7-diazaspiro[2.5]octan-4-yl)-1,3,5-triazin-2-yl]spiro[6H-thieno[3,4-b]thiophene-4,3′-azetidine]-3-carbonitrile] | < 10 | < 10 | 1000 to 20000
10 | C[C@H](c1cccnc1N)N(CC#N)c1nc(OC[C@@]23CCCN2C[C@H](F)C3)nc(N2CC3(C2)SCc2sc(N)c(C#N)c23)n1 [Compound 246, 2′-amino-1-(4-(((R)-1-(2-aminopyridin-3-yl)ethyl)(cyanomethyl)amino)-6-(((2R,7aS)-2-fluorotetrahydro-TH-pyrrolizin-7a(5H)-yl)methoxy)-1,3,5-triazin-2-yl)-6′H-spiro[azetidine-3,4′-thieno[3,4-b]thiophene]-3′-carbonitrile] | < 10 | < 10 | < 10
11 | N#Cc1c(N)sc2c1C1(CN(c3nc(OC[C@@]45CCCN4C[C@H](F)C5)nc(N(CC(=O)O)C4(C#N)CC4)n3)C1)SC2 [Compound 259, 2-[[4-(2-amino-3-cyano-spiro[6H-thieno[3,4-b]thiophene-4,3′-azetidine]-1′-yl)-6-[[(2R,8S)-2-fluoro-1,2,3,5,6,7-hexahydropyrrolizin-8-yl]methoxy]-1,3,5-triazin-2-yl]-(1-cyanocyclopropyl)amino]acetic acid] | – | – | 1000 to 20000
12 | N#CCN(CC(F)F)c1nc(OC[C@@]23CCCN2C[C@H](F)C3)nc(N2CC3(C2)SCc2sc(N)c(C#N)c23)n1 [Compound 242, 2-amino-1′-[4-[cyanomethyl(2,2-difluoroethyl)amino]-6-[[(2R,8S)-2-fluoro-1,2,3,5,6,7-hexahydropyrrolizin-8-yl]methoxy]-1,3,5-triazin-2-yl]spiro[6H-thieno[3,4-b]thiophene-4,3′-azetidine]-3-carbonitrile] | < 10 | < 10 | 10 to 100
13 | CCN(c1nc(OC[C@@]23CCCN2C[C@H](F)C3)nc(N2CC3(C2)SCc2sc(N)c(C#N)c23)n1)[C@H](C)C(N)=O [Compound 235, (2R)-2-[[4-(2-amino-3-cyano-spiro[6H-thieno[3,4-b]thiophene-4,3′-azetidine]-1′-yl)-6-[[(2R,8S)-2-fluoro-1,2,3,5,6,7-hexahydropyrrolizin-8-yl]methoxy]-1,3,5-triazin-2-yl]-ethyl-amino]propanamide] | < 10 | < 10 | 100 to 1000
14 | CCN(c1nc(OC[C@@]23CCCN2C[C@H](F)C3)nc(N2CC3(C2)c2c(sc(N)c2C#N)CN3CC(F)F)n1)[C@H](C)c1cccnc1N [Compound 227, 2-amino-1′-[4-[[(1R)-1-(2-amino-3-pyridyl)ethyl]-ethyl-amino]-6-[[(2R,8S)-2-fluoro-1,2,3,5,6,7-hexahydropyrrolizin-8-yl]methoxy]-1,3,5-triazin-2-yl]-5-(2,2-difluoroethyl)spiro[6H-thieno[2,3-c]pyrrole-4,3′-azetidine]-3-carbonitrile] | 100 to 1000 | 10 to 100 | –

From patent publication US12421254B2, “KRAS modulators and uses thereof” (Quanta Therapeutics, Inc., priority 2023, dated 2025)
